The values that follow come from patent publication EP0048954A2, “Beta-lactam compounds, process for the preparation thereof and intermediate products for the preparation thereof” (SAGAMI CHEMICAL RESEARCH CENTER, priority 1980, dated 1982).

Common to all, as to experiment: Antibacterial activity, minimum inhibition concentration (method of The Chemotherapy Association, Japan)
Common to all, as to assay type: cell-based

The test system of assay [1] is Salmonella typhimurium 3173. The settings on record: Salmonella enterica, TYPHIMURIUM
The procedure:
(§1) Antibacterial activities of the compounds according to this invention, which had been prepared in the preceding Examples, were measured according to the method prescribed by The Committee of Amendment of "The method for measurement of the minimum inhibition concentration", The Chemotherapy Association, Japan (See Chemotherapy, Vol. 22, No. 6, pp. 1126 - 1128 (1974) and Vol. 29, No. 1, pp. 76 - 79 (1981)).
(§2) The abbreviations A to P will be used in the following Tables 2 to 8.
(§3) Test results are shown in terms of the minimum inhibition concentration (µg/mℓ.) in the following Tables 2 to 8.

In assay [2] the test system is Proteus mirabillis B-30-2 IFO-3849. Here is the method: as §1, §2, §3
For the next assay, the system named is Klebsiella pneumoniae. The settings on record: Klebsiella pneumoniae. Here is the method:
as §1, §2, §3

Another assay has as its system Proteus morgani Kono. The settings on record: read-out: minimum inhibition concentration. The procedure: as §1, §2, §3
For assay [3], the system named is Bacillus subtilis ATCC 6633. The settings on record: Bacillus subtilis. The procedure:
as §1, §2, §3

In assay [4] the test system is Serratia marcescens IFO-3736. The settings on record: Serratia marcescens. The procedure:
as §1, §2, §3

A further assay concerns Escherichia coli NIHJC-2. The settings on record: Escherichia coli. The procedure: as §1, §2, §3
For assay [5], the system named is Citrobactor freundii NIH-10018 -68. The settings on record: read-out: minimum inhibition concentration. Here is the method: as §1, §2, §3
Assay [6] relates to Pseudomonas aeruginosa NCTC-10490. Particulars: Pseudomonas aeruginosa. Here is the method:
as §1, §2, §3

Assay [7] relates to Enterobactor cloacae NCTC-9394. The settings on record: read-out: minimum inhibition concentration. The procedure: as §1, §2, §3
Assay [8] concerns Staphylococcus aureus 6538-P. The procedure:
as §1, §2, §3

Another assay relates to Escherichia coli NIHJ. The settings on record: Escherichia coli, read-out: minimum inhibition concentration. The procedure:
as §1, §2, §3

A further assay concerns Serratia marcescens 1023. Here is the method: as §1, §2, §3
The next assay has as its system Proteus vulgaris OX-19. The settings on record: Proteus vulgaris.
Text: as §2, §3

Another assay has as its system Proteus rettgeri NIH-96. Particulars: Providencia rettgeri.
Text: as §2, §3

Setting [9] is: strain D: Salmonella typhimurium 3173, read-out: minimum inhibition concentration.
[10] abbreviates: strain G: Proteus mirabillis B-30-2 IFO-3849, read-out: minimum inhibition concentration.
Where [11] appears, read: strain C: Klebsiella pneumoniae, read-out: minimum inhibition concentration.
Setting [12] is: ATCC6633, strain B: Bacillus subtilis ATCC 6633, read-out: minimum inhibition concentration.
Where [13] appears, read: IFO3736, strain F: Serratia marcescens IFO-3736, read-out: minimum inhibition concentration.
The mark [14] stands for this setting: NIHJC2, strain L: Escherichia coli NIHJC-2, read-out: minimum inhibition concentration.
[15] abbreviates: strain O: Citrobactor freundii NIH-10018 -68.
The mark [16] stands for this setting: NCTC10490, strain M: Pseudomonas aeruginosa NCTC-10490, read-out: minimum inhibition concentration.
[17] abbreviates: strain N: Enterobactor cloacae NCTC-9394.
The mark [18] stands for this setting: strain A: Staphylococcus aureus 6538-P, read-out: minimum inhibition concentration.
The mark [19] stands for this setting: strain K: Escherichia coli NIHJ.
Setting [20] is: Serratia marcescens, 1023, strain E: Serratia marcescens 1023, read-out: minimum inhibition concentration.
Where [21] appears, read: OX19, strain H: Proteus vulgaris OX-19, read-out: minimum inhibition concentration.
Where [22] appears, read: NIH96, strain I: Proteus rettgeri NIH-96, read-out: minimum inhibition concentration.
The mark [23] stands for this setting: read-out: minimum inhibition concentration, strain D: Salmonella typhimurium 3173.
The mark [24] stands for this setting: read-out: minimum inhibition concentration, strain G: Proteus mirabillis B-30-2 IFO-3849.
[25] abbreviates: read-out: minimum inhibition concentration, strain C: Klebsiella pneumoniae.
Setting [26] is: ATCC6633, read-out: minimum inhibition concentration, strain B: Bacillus subtilis ATCC 6633.
Setting [27] is: IFO3736, read-out: minimum inhibition concentration.
The mark [28] stands for this setting: NIHJC2, read-out: minimum inhibition concentration.
[29] abbreviates: NCTC10490, read-out: minimum inhibition concentration.
Setting [30] is: Staphylococcus aureus, 6538P, read-out: minimum inhibition concentration, strain A: Staphylococcus aureus 6538-P.
[31] abbreviates: Serratia marcescens, 1023, read-out: minimum inhibition concentration, strain E: Serratia marcescens 1023.
Setting [32] is: OX19, read-out: minimum inhibition concentration, strain H: Proteus vulgaris OX-19.
[33] abbreviates: NIH96, read-out: minimum inhibition concentration, strain I: Proteus rettgeri NIH-96.

≈ marks a conversion by molar mass, not a printed value. Read-outs that look alike come from different tables or passages of the source.

`CC(=O)OCC1=C(C(=O)O)N2C(=O)C(NC(=O)C(=C(Cl)Cl)c3cccc(O)c3)[C@H]2SC1` (stereo partly drawn) [Compound 3, 7-[2-dichloromethylene-2-(3-hydroxyphenyl)acetamido]-3-acetoxymethyl-3-cephem-4-carboxylic acid]: the MIC is 12.5 µg/mL (≈ 25.7 µM) in assay [1] (setting [9]); 50 µg/mL (≈ 103 µM) in [2] (setting [10]); 50 µg/mL (≈ 103 µM) in the assay on Klebsiella pneumoniae (setting [11]); 100 µg/mL (≈ 205 µM) with Proteus morgani Kono (strain J: Proteus morgani Kono); 3.12 µg/mL (≈ 6.41 µM) in assay [3] (setting [12]); 50 µg/mL (≈ 103 µM) in [4] (setting [13]). Further, the MIC in the assay with Escherichia coli NIHJC-2 (setting [14]) stood at 50 µg/mL (≈ 103 µM); in assay [5] (setting [15]), 25 µg/mL (≈ 51.3 µM); in assay [6] (setting [16]), 6.25 µg/mL (≈ 12.8 µM); in assay [7] (setting [17]), 12.5 µg/mL (≈ 25.7 µM); in assay [8] (setting [18]), 0.39 µg/mL (≈ 0.8 µM); with Escherichia coli NIHJ (setting [19]), 0.2 µg/mL (≈ 0.41 µM). Moreover, the MIC with Serratia marcescens 1023 (setting [20]) was determined as 0.25 µg/mL (≈ 0.513 µM); with Proteus vulgaris OX-19 (setting [21]) it was 0.76 µg/mL (≈ 1.56 µM); with Proteus rettgeri NIH-96 (setting [22]), 0.1 µg/mL (≈ 0.205 µM).
On to `CC(=O)OCC1=C(C(=O)[O-])N2C(=O)C(NC(=O)C(=CCl)c3csc(N)n3)[C@H]2SC1.[Na+]` (stereo partly drawn) [Compound 20, 7-[2-chloromethylene-2-(2-aminothiazol-4-yl)acetamido]-3-acetoxymethyl-3-cephem-4-carboxylic acid sodium salt], for which the MIC in assay [1] (setting [23]) amounted to 3.12 µg/mL; in assay [2] (setting [24]), 1.56 µg/mL; in the assay on Klebsiella pneumoniae (setting [25]), 1.56 µg/mL; in the assay with Proteus morgani Kono, 1.56 µg/mL; in [3] (setting [26]), 6.25 µg/mL; in [4] (setting [27]), 6.25 µg/mL. The MIC was determined as 3.12 µg/mL in the assay with Escherichia coli NIHJC-2 (setting [28]); 1.56 µg/mL in assay [5]; 6.25 µg/mL in [6] (setting [29]); 0.78 µg/mL in [7]; 1.56 µg/mL in assay [8] (setting [30]); 0.05 µg/mL with Escherichia coli NIHJ. For the same compound, the figures for the MIC in the assay on Serratia marcescens 1023 (setting [31]), in the assay on Proteus vulgaris OX-19 (setting [32]) and with Proteus rettgeri NIH-96 (setting [33]) were 12.5 µg/mL, 0.2 µg/mL and 0.025 µg/mL, respectively.
Consider `CSc1nnc(SCC2=C(C(=O)[O-])N3C(=O)C(NC(=O)C(=CCl)c4csc(N)n4)[C@H]3SC2)s1.[Na+]` (stereo partly drawn) [Compound 21, 7-[2-chloromethylene-2-(2-aminothiazol-4-yl)acetamido]-3-(2-methylthio-1,3,4-thiadiazol-5-yl)thiomethyl-3-cephem-4-carboxylic acid sodium salt], for which the MIC came to 3.12 µg/mL in assay [1] (setting [23]); 1.56 µg/mL in assay [2] (setting [24]); 3.12 µg/mL in the assay with Klebsiella pneumoniae (setting [25]); 0.78 µg/mL in the assay on Proteus morgani Kono; 3.12 µg/mL in assay [3] (setting [26]); 3.12 µg/mL in assay [4] (setting [27]). In addition, the MIC in the assay on Escherichia coli NIHJC-2 (setting [28]) was 1.56 µg/mL; in [5] it was 3.12 µg/mL; in assay [6] (setting [29]), 6.25 µg/mL; in [7] it was 0.39 µg/mL; in assay [8] (setting [30]), 0.2 µg/mL; in the assay with Escherichia coli NIHJ, less than 0.00625 µg/mL. In addition, the MIC in the assay on Serratia marcescens 1023 (setting [31]) is 3.12 µg/mL; in the assay with Proteus vulgaris OX-19 (setting [32]), 0.025 µg/mL; with Proteus rettgeri NIH-96 (setting [33]), less than 0.00625 µg/mL.
In the case of `Nc1nc(C(=CCl)C(=O)NC2C(=O)N3C(C(=O)[O-])=C(C[n+]4ccccc4)CSC23)cs1` (stereo not drawn) [Compound 24, 7-[2-chloromethylene-2-(2-aminothiazol-4-yl)acetamido]-3-pyridiniummethyl-3-cephem-4-carboxylic acid betaine], the MIC came out at 25 µg/mL (≈ 52.3 µM) in assay [1] (setting [9]); 12.5 µg/mL (≈ 26.2 µM) in [2] (setting [10]); 25 µg/mL (≈ 52.3 µM) in the assay on Klebsiella pneumoniae (setting [11]); 25 µg/mL (≈ 52.3 µM) in the assay with Proteus morgani Kono (strain J: Proteus morgani Kono); 25 µg/mL (≈ 52.3 µM) in assay [3] (setting [12]); 50 µg/mL (≈ 105 µM) in assay [4] (setting [13]). For the same compound, the MIC with Escherichia coli NIHJC-2 (setting [14]) is 25 µg/mL (≈ 52.3 µM); in assay [5] (setting [15]) it was 25 µg/mL (≈ 52.3 µM); in assay [6] (setting [16]) it was greater than 100 µg/mL; in assay [7] (setting [17]) it was 12.5 µg/mL (≈ 26.2 µM); in assay [8] (setting [18]), 6.25 µg/mL (≈ 13.1 µM); with Escherichia coli NIHJ (setting [19]), 1.56 µg/mL (≈ 3.26 µM). The MIC in the assay on Serratia marcescens 1023 (setting [20]) came to 25 µg/mL (≈ 52.3 µM); in the assay with Proteus vulgaris OX-19 (setting [21]), 3.12 µg/mL (≈ 6.54 µM); in the assay on Proteus rettgeri NIH-96 (setting [22]), 0.78 µg/mL (≈ 1.63 µM).
